Results as given in publication PMC11173422, “Substitution-Induced Mechanistic Switching in SNAr-Warheads for Cysteine Proteases” (Molecules, 2024).
Like-named read-outs stand apart in the source and are kept apart here.

How the values were obtained:
[1] = target: T1, Rhodesain (TbCatL) (Trypanosoma brucei rhodesiense, UniProt Q95PM0); experiment: Fluorimetric rhodesain inhibition assay with Z-Phe-Arg-AMC; format: biochemical; settings: for Inhibition of rhodesain, in words: SAR discussion; for Mode of inhibition (time dependency, reversibility): from progress curves
T1 construct: stably transformed with the rhodesain ΔC gene cloned into the pPICZαA vector; made in house; host or cells: Pichia pastoris X-33 (pPICZαA, secreted into the culture supernatant)
T1 sequence (Q95PM0 entry or part of it): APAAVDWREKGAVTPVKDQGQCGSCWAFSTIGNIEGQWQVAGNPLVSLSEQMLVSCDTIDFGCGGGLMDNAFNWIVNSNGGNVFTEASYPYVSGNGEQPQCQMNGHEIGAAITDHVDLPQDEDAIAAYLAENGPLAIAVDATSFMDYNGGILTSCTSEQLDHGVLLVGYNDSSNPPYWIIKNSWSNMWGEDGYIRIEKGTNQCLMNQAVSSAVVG
Description: Inhibition of rhodesain was assessed using Z-Phe-Arg-AMC as a fluorogenic substrate. IC50 or KI^app were determined depending on the time dependency of the progress curves. Because a competitive mode of inhibition can be assumed, Ki (for reversible inhibition) and KI (for irreversible inhibition) were calculated using the Cheng–Prusoff equation [30].
Fluorimetric enzyme assays were performed as described in the literature. Information regarding buffers, concentrations, the employed substrate, as well as data analysis for linear and non-linear regression is given in the SI. In short, the cleavage of a fluorogenic substrate by the protease of interest is detected in the presence of different concentrations of inhibitors. […] For the irreversible compound with non-linear regression, the kinetic kinact value was also plotted, from which k2nd was calculated.
To investigate this influence, its inhibition of […]
nucleophilic reducing agent for enzyme activation).
Reversibility assessment for time-dependent inhibitor 9
After this incubation period, the samples
Rhodesain, CatL, CatB Assays
Continuous fluorometric measurements with a Tecan Spark 10M reader in a 96 well plate format was used to evaluate activity. Rhodesain, HsCatB and HsCatL were diluted in their respective activation buffer prior to use. Rhodesain was incubated in this for 30–60 min prior to use. The enzyme of interest (5 µL) was incubated with the inhibitor in question (10 µL), and its specific substrate (5 µL) in the respective assay buffer. The fluorescence signal was measured every 30 s for 10 min at room temperature with the corresponding excitation/emission wavelengths (λex = 380 nm / λem = 460 nm). The final concentrations and buffer compositions are depicted in SI-Table S1. Inner-filter effect corrections were performed as described in literature if deviations >5% were detected.
SI-Table S1: Information on assay conditions. [E] = final enzyme concentration, [S] = final substrate concentration in well.
For the evaluation of 9 in absence of DTT (depicted in SI-Figure S5): 5 nM final rhodesain concentration that was activated before in presence of TCEP (alternative activation buffer: 5 mM DTT → 5 mM TCEP) […]
Time-independent behavior
For inhibitors that behaved time-independently during the measurements (i.e., F-t-diagrams show constant slope), IC50 values using defined dilution series for each compound were calculated with GraphPad PRISM by fitting the remaining enzymatic activity to a four parameter IC50 equation with Y [%] as the residual enzyme activity, Ymax as the maximum value of the dose response curve at inhibitor concentrations [I] = 0 µM, Ymin as the minimum value at high inhibitor concentrations and s as the Hill […]
y [%residual activity]=௬ౣ౗౮ ି௬ౣ౟౤ೞ + y୫୧୬ eq. 1
It is assumed that the inhibitors bind competitively in respect to the substrate. Due to the dependence of the IC50 value on the substrate affinity and concentration, the Ki values were calculated with the Cheng-Prusoff equation, using the final substrate concentration [S] and the Michaelis-Menten constant KM to […]
For inhibitors that behaved time-dependently during the measurements (i.e., F-t-diagrams show reducing slopes over time), KIapp and kinact values using defined dilution series for each compound were calculated

[2] = Stability towards general substitution reactions (water, DTT); format: physicochemical; settings: NH4OAc buffer pH 5.5, with or without DTT; UV spectra and LCMS
Description: 0.1 inhibitor concentration
SI-Figure S1: (A) Absorption spectra of 2, 3 and 9 with different concentrations, visualizing a potential need for mathematical correction at high concentrations for nitroanilines. ( B) Experimental proof that mathematical correction of attenuation of AMC fluorescence is only necessary for inhibitor concentrations ≥10 µM. For 2 and 3 at 10 µM attenuation of fluorescence signal is 14 and 11 %, respectively. At concentrations relevant for IC50 evaluation, no relevant interference is detected.
Stability measurements towards general substitution reactions
2, 3 and 9 (from 20 mM stock solutions in DMSO) were diluted into NH4OAc buffer (pH 5.5) to final concentrations of 100 µM, 125 µM or 1 mM and incubated in buffer alone or in presence of as much DTT as present in the fluorimetric rhodesain assay and the MALDI-TOF experiment, respectively. This was recorded with absorption spectroscopy (results depicted in SI-Figure S2) on a Tecan Spark 10M plate reader in UV-transparent 96-well plates (Greiner UV-Star®, 655801, 200 µL volume per sample) or with LCMS (see “measurement setup for LCMS” as described under the method for PAMPA; results depicted […]
system at pH 5.5 over the course of the time necessary for the employed assays. There is a small difference detectable in reactivity of 3 with 5 mM DTT: a slight but time-dependent change in UV-spectrum was found where the maximum at 265 nm decreased in intensity, indicating a small degree of degradation […]
that is not observed with lower DTT concentration or with 2 at all. The formation takes place on a much larger timescale as the time for detection in the assays (minutes vs. hours) and is therefore irrelevant to the performed evaluations. […]
repeated LCMS analysis indicates the formation of the phenol (substitution of fluoride) over the course of hours. This also seems to happen in the DMSO stock solution to a small degree after some usage (explains the presence of phenol at 0 min). Accordingly, in presence of DTT, both the phenol and the thioether are detected by MS for this compound. […]

[3] = target: T2, rhodesain (Trypanosoma brucei rhodesiense, UniProt Q95PM0); experiment: MALDI-TOF-MS (sinapinic acid matrix) adduct detection; format: binding; parameters: stably transformed with the rhodesain ΔC gene cloned into the pPICZαA vector; made in house; host or cells: Pichia pastoris X-33 (pPICZαA, secreted into the culture supernatant); settings: 100 µM inhibitor, 10 µM rhodesain, acidic sinapinic acid matrix
T2 sequence (Q95PM0 entry or part of it): as above
Description: Using MALDI-TOF-MS, differentiation between non-covalent and covalent ligand-target complexes is possible if acidic matrices are used that interfere with ionic and dipole interactions (i.e., suppress non-covalent interactions).
Protein mass spectrometry was performed as described before, but also described in detail in the SI. In short, rhodesain was incubated with a surplus of inhibitor under conditions similar to those of the enzyme assays described above to enable complex formation. This sample was desalted and then incorporated into a sinapinic acid matrix, which was then subjected to mass spectrometry. Data analysis was performed using mMass.
Mass spectrometric experiments were performed as described before. Lyophilized rhodesain was first […]
manufacturer’s instructions.
Then, the mixtures were left in the fume hood for cocrystallization until dry.
TOF/TOF mass spectrometer (Bruker Daltonik GmbH, Bremen, Germany). The instrument is equipped […]
cropping from 22–27 kDa was performed.
Baseline was corrected with standard settings. […]

[4] = target: T2, rhodesain; settings: 1.5 h incubation (9: 400 µM; K11777: 500 nM), diluted 1:100, n = 2; uninhibited 0.68 ± 0.05 FU/s
Description: rhodesain was reassessed in DTT-free conditions (tris(2-carboxyethyl)phosphine = TCEP used as a non-
The reactivity towards water should not be seriously
To assess reversibility of the time-dependent inhibitor [4], and to therefore discriminate between slow-
reversible and irreversible inhibition, rhodesain was incubated with compound 9 for 1.5 h, at an inhibitor
concentration of 400 µM (7.5x KI) to enable the quantita tive progression of a covale nt irreversible reaction
if one is possible. The same incubation was performed with DMSO alone as a negative control and in
presence of 500 nM K11777 as a positive irreversible control. After this incubation period, the samples
were diluted 1:100 (to 4 µM of compound 9 (0.075x KI)) into assay buffer containing substrate to record
the degree of recovery of enzymatic activity over the course of 10 min.
Raw activity of rhodesain after dilution was

[5] = Parallel artificial membrane permeability assay (PAMPA); settings: pH 7.4
Description: An artificial membrane consisting of phosphatidylcholine dissolved in n-dodecane was employed to control equilibration between two connected aqueous compartments, of which one contained the compound of interest. This model for compound permeation through a cell membrane was incubated, and the resulting concentration in the acceptor compartment was quantified spectroscopically.
A general literature-known principle was used [11]. Propranolol hydrochloride was sourced from Changzou Yabang Pharmaceutical (Fagron GmbH & Co. KG). Candesartan cilexetil was sourced as a chemical reference standard from the EDQM (catalogue code Y0001388).
Incubation setup consisted of donor (top) plate (Sigma Aldrich, MAIPNTR10), 5 µL artificial membrane
(1 % (w/v) L-α-phosphatidyl choline, Sigma Aldrich P3556, in n-dodecane, Sigma Aldrich 8205430100),
transparent measurement plate (Greiner UV-Star®, 655801), Tecan Spark 10M® well plate reader, 200 µL

[6] = Aqueous solubility observed in PAMPA set-up; format: physicochemical; settings: buffered aqueous solution pH 7.4, 5% DMSO
Description: acceptor (bottom) plate (Greiner, 655074). Measurement setup for direct spectroscopy consisted of UV- […]
sample volume, λ = 200–650 nm. […]
elution (0.7 mL/min). Injection volume was 100 µL. Areas of peaks in the chromatogram (detection-λ = 210 nm) were used to calculate the AUCs. Retention time and mass spectrum recorded in positive ionization mode were used to assign species. Analysis was performed using MestreNova. […]
donor plate. This was sealed (Greiner, 676070, Viewseal sealer). 400 µL of acceptor solution was applied to the acceptor plate. Incubation setup was assembled and left for 7 h. After this time, acceptor and reference solutions were analyzed.
The acceptor solutions of those were measured
P௔௣௣ = −(௏ವ ା௏ಲ )∗஺∗௧ eq. 6

| Molecule | Ki [1] | Inhibition of rhodesain, in words [1] | further results |
| --- | --- | --- | --- |
| CC(C)C[C@H](NC(=O)[C@H](Cc1ccccc1)NC(=O)Nc1ccc(F)c([N+](=O)[O-])c1)C(=O)O [Compound 7] | 50 µM | did not produce an active inhibitor | – |
| CC(C)C[C@H](NC(=O)[C@H](Cc1ccccc1)Nc1cc(F)ccc1[N+](=O)[O-])C(=O)O [Compound 5] | 44 µM | did not result in inhibition | – |
| O=C(O)[C@H](CCc1ccccc1)NC(=O)[C@H](Cc1ccccc1)Nc1cc(F)c([N+](=O)[O-])cc1[N+](=O)[O-] [Compound 17] | 6 µM | – | – |
| CC(C)C[C@H](NC(=O)[C@H](Cc1ccccc1)Nc1ccccc1[N+](=O)[O-])C(=O)O [Compound 1] | 39 µM | – | – |
| CC(C)C[C@H](NC(=O)[C@H](Cc1ccccc1)Nc1cc(F)c([N+](=O)[O-])cc1[N+](=O)[O-])C(=O)O [Compound 3] | 0.0019 ± 0.0001 µM | – | Reactivity towards unspecific nucleophiles (water and DTT) [2]: no relevant tendency towards either side reaction; IC50 [1]: 0.0245 ± 0.0017 µM; Mode of inhibition (time dependency, reversibility) [1]: time-independent; Adduct with rhodesain in MALDI-TOF-MS [3]: an adduct corresponding to the mass of the inhibitor was observed |
| C[C@@H](Nc1cc(F)c([N+](=O)[O-])cc1[N+](=O)[O-])C(=O)N[C@H](CCc1ccccc1)C(=O)O [Compound 15] | 22 µM | – | – |
| C[C@H](Nc1cc(F)c([N+](=O)[O-])cc1[N+](=O)[O-])C(=O)N[C@@H](CCc1ccccc1)C(=O)O [Compound 13] | 13 µM | – | – |
| CC(C)C[C@H](NC(=O)[C@H](Cc1ccccc1)NC(=O)c1cc([N+](=O)[O-])c(Cl)cc1[N+](=O)[O-])C(=O)O [Compound 12] | 25 µM | – | Mode of inhibition (time dependency, reversibility) [1]: abolished the time-dependent mode of inhibition |
| C[C@@H](NC(=O)[C@@H](CCc1ccccc1)Nc1cc(F)c([N+](=O)[O-])cc1[N+](=O)[O-])C(=O)O [Compound 14, ((R)-2-((5-fluoro-2,4-dinitrophenyl)amino)-4-phenylbutanoyl)-D-alanine] | 27 µM | – | – |
| CC(C)C[C@H](NC(=O)[C@H](Cc1ccccc1)NC(=O)c1cccc([N+](=O)[O-])c1F)C(=O)O [Compound 10] | 14 µM | ineffective | – |
| CC(C)C[C@H](NC(=O)[C@H](Cc1ccccc1)NC(=O)c1ccc(Cl)nc1Cl)C(=O)O [Compound 8] | 30 µM | did not yield relevant inhibition | – |
| CC(C)C[C@H](NC(=O)[C@H](Cc1ccccc1)NC(=O)c1cc([N+](=O)[O-])ccc1F)C(=O)O [Compound 11] | 13 µM | ineffective | – |
| N-(5-fluoro-2,4-dinitrobenzoyl)-L-phenylalanyl-L-leucine [Compound 9] | – | – | Reactivity towards unspecific nucleophiles (water and DTT) [2]: relevant reactivity towards unspecific nucleophiles; Ki ([1]; DTT-free conditions, TCEP for enzyme activation, read-out: KIapp): 200 µM; Ki ([1]; KI, irreversible time-dependent inhibition, from KI^app by Cheng–Prusoff, read-out: Ki or KI): 53 µM; Mode of inhibition (time dependency, reversibility) [1]: irreversible; Ki ([1]; standard conditions with DTT, read-out: KIapp): 700 µM; Activity of rhodesain after incubation and subsequent dilution [4]: −0.01 ±0.00 FU/s; Adduct with rhodesain in MALDI-TOF-MS [3]: An adduct was also found for 9, albeit with a shift lower than the mass of the inhibitor |
| CN1CCN(C(=O)N[C@@H](Cc2ccccc2)C(=O)N[C@H](/C=C/S(=O)(=O)c2ccccc2)CCc2ccccc2)CC1 [Compound K11777, reference compound] | – | – | Activity of rhodesain after incubation and subsequent dilution [4]: −0.01 ±0.00 FU/s; Adduct with rhodesain in MALDI-TOF-MS [3]: showed the expected mass shift representative of covalent adduct formation |
| C[C@H](NC(=O)[C@H](CCc1ccccc1)Nc1cc(F)c([N+](=O)[O-])cc1[N+](=O)[O-])C(=O)O [Compound 16] | 13 µM | – | – |
| CC(C)C[C@H](NC(=O)[C@H](Cc1ccccc1)Nc1ccc([N+](=O)[O-])c([N+](=O)[O-])c1)C(=O)OC(C)(C)C [Compound 20] | – | – | Papp at 7 h, 100 µM [5]: 9.3 ± 0.7 ×10⁻⁶ cm/s; aqueous solubility [6]: poor aqueous solubility |
| CC(C)C[C@H](NC(=O)[C@H](Cc1ccccc1)Nc1ccc([N+](=O)[O-])c([N+](=O)[O-])c1)C(=O)O [Compound 2] | 0.0028 ± 0.0002 µM | – | Reactivity towards unspecific nucleophiles (water and DTT) [2]: no relevant tendency towards either side reaction; IC50 [1]: 0.0364 ± 0.0023 µM; Mode of inhibition (time dependency, reversibility) [1]: time-independent; Adduct with rhodesain in MALDI-TOF-MS [3]: no adduct was found |
| CC(C)C[C@H](NC(=O)[C@H](Cc1ccccc1)Nc1ccc([N+](=O)[O-])cc1)C(=O)O [Compound 4] | 17 µM | – | – |
| O=C(O)[C@@H](Cc1ccccc1)NC(=O)[C@@H](CCc1ccccc1)Nc1cc(F)c([N+](=O)[O-])cc1[N+](=O)[O-] [Compound 18] | 12 µM | – | – |
| CC(C)C[C@H](NC(=O)[C@H](Cc1ccccc1)Nc1cc(Cl)ncn1)C(=O)O [Compound 6] | 102 µM | did not produce an active inhibitor | – |
